{
  "source": "patent US9546159B2",
  "about": "“N-substituted 3,4-bis (catechol) pyrrole compounds, and the preparation and use thereof in the treatment of cancer” (Centre National De La Recherche Scientifique (CNRS), priority 2012, dated 2017)",
  "assay_type_in_all_cases": "cell-based",
  "key": {"[1]": {"system": "HCT-116 cells (colorectal carcinoma)", "assay": "cell growth test (CellTiter-Blue Cell Viability Assay)", "conditions": "Homo sapiens, 72 hours of treatment, read-out: IC50 (concentration of compound inducing a 50% reduction of cell growth)", "procedure": "(§1) The biological activity of compound (1) was studied in vitro on 3 different cancer cell lines: • HCT-116 (colorectal carcinoma) • U87 (glioblastoma) • K562 (myeloid leukaemia) and on 3 normal non-cancerous cell types: • HUVEC (human umbilical vascular endothelial cells) • NHDF (human dermal fibroblasts) • HFDPC (human hair follicle dermal papilla cells).\n(§2) The cells selected for this study were incubated at 37° in the presence of compound (1) added in the culture medium at different concentrations and at different times.\n(§3) The effect of compound (1) on HCT-116, U87 and K562 cell growth was evaluated using a cell growth test (CellTiter-Blue™ m Cell Viability Assay, Promega). The growth curves and the IC50 values (concentration of compound inducing a 50% reduction of cell growth) determined after 72 hours of cell treatment with compound (1) are presented in FIG. 1. They are 30 nm for HCT-116 cells, 45 nM for U87 cells and 70 nM for K562."}, "K562 (myeloid leukaemia)": {"system": "K562 (myeloid leukaemia)", "assay": "cell growth test (CellTiter-Blue Cell Viability Assay)", "conditions": "Homo sapiens; K562, 72 hours of treatment; read-out: IC50 (concentration of compound inducing a 50% reduction of cell growth)", "procedure": "as §1, §2, §3"}, "U87 cells (glioblastoma)": {"system": "U87 cells (glioblastoma)", "assay": "cell growth test (CellTiter-Blue Cell Viability Assay)", "conditions": "Homo sapiens, U-87 MG, 72 hours of treatment, read-out: IC50 (concentration of compound inducing a 50% reduction of cell growth)", "procedure": "as §1, §2, §3"}, "[2]": {"system": "HFDPC (human hair follicle dermal papilla cells)", "assay": "cell growth, normal cells", "conditions": "72 hours of treatment", "procedure": "as §1, §2, §3\n(§4) In order to determine the specificity of action of compound (1) on cancer cells, we evaluated the effect thereof with respect to normal human HUVEC, NHDF and HFDPC cells and the HCT-116, U87 and K652 cancer cell annotations."}, "[3]": {"system": "HUVEC cells (human umbilical vascular endothelial cells)", "assay": "cell growth, normal cells", "conditions": "72 hours of treatment", "procedure": "as §1, §2, §3, §4"}, "[4]": {"system": "NHDF cells (human dermal fibroblasts)", "assay": "cell growth, normal cells", "conditions": "72 hours of treatment", "procedure": "as §1, §2, §3, §4"}, "HCT-116 cells [5]": {"system": "HCT-116 cells", "assay": "counting live cells after trypan blue staining", "procedure": "The effect of compound (1) on cell growth was described in more detail on the HCT-116 cell line. This study was conducted as a function of the concentration and exposure time of the cells to the molecule under test (24 hrs, 48 hrs and 72 hrs) by counting the number of live cells after excluding dead cells by means of trypan blue staining.\nFIG. 2 represents the effect of compound (I) on the number and viability of HCT-116 cells as a function of the concentration thereof and the treatment time."}, "HCT-116 cells [6]": {"system": "HCT-116 cells", "assay": "cell cycle flow cytometry analysis", "conditions": "HCT-116, 24 hours, 30 and 50 nM", "procedure": "This effect is significant after 24 hours of exposure of the cells to compound (1) used at the 30 and 50 nM concentrations (FIG. 4)."}, "[7]": {"system": "proteins p21 and p27 in HCT-116 cells", "assay": "Western Blot of proteins p21 and p27", "conditions": "HCT-116, 24 hours", "procedure": "The gene of the protein p27 is described as being regulated by FOXO3, whereas that of the protein p21 is controlled by the p53 transcription factor, stimulated inter alia by oxidative stress. The HCT-116 cells were treated with compound (1) for 24 hours. The cell extracts were then analysed by Western Blot."}, "[8]": {"system": "caspases 3 and 7 in HCT-116 cells", "assay": "caspases 3 and 7 activity (Apo-ONE test)", "conditions": "HCT-116, 24 hours, 5 nM to 75 nM", "procedure": "The activity of caspases 3 and 7, marker enzymes of apoptosis, was measured using the Apo-ONE (Promega) test after treating HCT-116 cells with compound (1) at concentrations varying from 5 nM to 75 nM."}, "HCT-116 cells [9]": {"system": "HCT-116 cells", "assay": "mitochondrial transmembrane potential (JC-1 probe, flow cytometry)", "conditions": "HCT-116, 24 hours, 25 nM to 100 nM", "procedure": "The study of the mitochondrial transmembrane potential, Δψm, was conducted by flow cytometry, using the JC-1 probe (MitoProbe™ JC-1 assay, Molecular Probes). JC-1 is a lipophilic […] compound which selectively penetrates the mitochondria, the colour whereof changes from green to red when the transmembrane potential increases."}, "[10]": {"system": "protein LC3-II in HCT-116 cells", "assay": "autophagy: Western Blot of LC3-II", "conditions": "HCT-116, 24 hours, 5 nM to 100 nm", "procedure": "In the aim of determining whether the stoppage of the cell cycle induced by compound (1) induces an autophagic reaction, the HCT-116 cells were treated with compound (1) at different doses for 24 hours. The cell extracts then underwent Western Blot analysis in order to view the expression of the protein LC3-II. Indeed, the protein LC3 exists in the cell either in cytosolic form (LC3-I) or associated with phagosomes (LC3-II). The latter is the marker of the autophagic reaction."}, "[11]": {"system": "Akt protein serine 473 phosphorylation, FOXO3, peroxiredoxin 1 in HCT-116 cells", "assay": "survival pathway PI3 kinase-Akt-Foxo Western Blot", "conditions": "HCT-116, 24 hours", "procedure": "In view of the stoppage of the cell cycle in the G0/G1 phase associated with an autophagic response in the absence of apoptosis following treatment with compound (1), we studied the action of this compound on the survival pathway involving PI3 kinase-Akt-Foxo. This signalling pathway is very frequently found to be disrupted (by stimulation) in a large number of cancer cells and contributes to the survival thereof.\nIndeed, HCT-116 cells were exposed for 24 hours to the action of compound (1) at concentrations varying from 5 nM to 100 nm."}, "[12]": {"system": "intracellular H2O2 in HCT-116 cells", "assay": "intracellular H2O2 concentration (DCF-DA, flow cytometry)", "description": "The protein peroxiredoxin is an enzyme having a peroxidase activity, controlling the intracellular hydrogen peroxide (H2O2) concentration. Therefore, we evaluated the effect of compound (1) on the intracellular H2O2 concentration, using DCF-DA (2′,7′-dichlorofluorescein diacetate, Sigma) as a marker of intracellular H2O2. Hydrogen peroxide is an intracellular second messenger. It regulates, according to the concentration thereof, numerous functions such as proliferation or apoptosis. A reduction of the concentration thereof is associated with a decrease in proliferation."}, "normal human cells": {"system": "normal human cells", "assay": "specificity of action: normal human cells versus cancer cells", "conditions": "in vitro, concentrations encompassing the IC50", "description": "as §4\nThe IC50 values are thus up to 300 times higher for normal cells compared to those obtained for cancer cells."}},
  "data": [
    {"compound": "O=[N+]([O-])c1cc(-c2cn(CCCN3CCCCCCCCCCCC3)cc2-c2cc(O)c(O)c([N+](=O)[O-])c2)cc(O)c1O", "note": "[compound (1), 5,5′-(1-(3-(Azacyclotridecan-1-yl)propyl)-1H-pyrrole-3,4-diyl)bis(3-nitrobenzene-1,2-diol)]", "values": [
      {"measurement": "IC50", "setting": "[1]", "value": 30, "unit": "nM"},
      {"measurement": "IC50", "setting": "K562 (myeloid leukaemia)", "value": 70, "unit": "nM"},
      {"measurement": "IC50", "setting": "U87 cells (glioblastoma)", "value": 45, "unit": "nM"},
      {"measurement": "IC50", "setting": "[2]", "value": 10000, "unit": "nM"},
      {"measurement": "IC50", "setting": "[3]", "value": 2000, "unit": "nM"},
      {"measurement": "IC50", "setting": "[4]", "value": 5000, "unit": "nM"},
      {"measurement": "nature of the action (cytostatic / cytotoxic)", "setting": "HCT-116 cells [5]; HCT-116", "value": "cytostatic and not cytotoxic"},
      {"measurement": "reduction of the number of cells", "setting": "HCT-116 cells [5]; HCT-116, 25 nM, 24 hours of treatment", "value": 40, "unit": "%"},
      {"measurement": "cell viability (trypan blue)", "setting": "HCT-116 cells [5]; HCT-116, 24, 48 and 72 hrs", "value": "lack of modification of cell viability"},
      {"measurement": "inhibition of the number of cells", "setting": "HCT-116 cells [5]; HCT-116, from 48 hours, concentrations greater than the IC50", "value": "up to 80%"},
      {"measurement": "effect on the cell cycle", "setting": "HCT-116 cells [6]", "value": "blocks cell division in the G0/G1 phase"},
      {"measurement": "expression of the protein p21", "setting": "[7]", "value": "no significant effect"},
      {"measurement": "expression of protein p27", "setting": "[7]; 25 and 50 nM", "value": "increase in the expression of protein p27"},
      {"measurement": "activity of caspases 3 and 7", "setting": "[8]", "value": "lack of variations in the activity of these enzymes"},
      {"measurement": "mitochondrial transmembrane potential Δψm", "setting": "HCT-116 cells [9]", "value": "does not modify Δψm significantly"},
      {"measurement": "expression of LC3-II", "setting": "[10]", "value": "increase in the expression of LC3-II"},
      {"measurement": "expression of the protein FOXO3", "setting": "[11]; 5 nM to 100 nm", "value": "stimulates the expression of the protein FOXO3"},
      {"measurement": "expression of the protein peroxiredoxin 1", "setting": "[11]; 5 nM to 100 nm", "value": "stimulates the expression of the protein peroxiredoxin 1"},
      {"measurement": "Akt protein serine 473 phosphorylation", "setting": "[11]; from the 25 nm concentration", "value": "totally suppresses"},
      {"measurement": "dose dependence of the effect on intracellular H2O2", "setting": "[12]; HCT-116", "value": "dose dependent"},
      {"measurement": "decrease of the intracellular H2O2 concentration", "setting": "[12]; HCT-116, 50 nM, 18 hours of treatment", "value": "approximately 50%"},
      {"measurement": "cytotoxicity with respect to normal human cells", "setting": "normal human cells", "value": "does not exhibit any cytotoxicity"}
    ]}
  ]
}
